# Results from patent publication US8293891B2, “4 (pyrrolopyridinyl)pyrimidin-2-ylamine derivatives” (Merck Patent Gesellschaft mit Beschrankter Haftung, priority 2007, dated 2012).
# What was measured:
# Assay type in all cases: cell-based
# A2780 (ovary) = test: Inhibition of the proliferation/vitality of tumour cells (Alamar Blue), A2780; conditions: Homo sapiens, 96 h, 4 days cultivation
# Description: (§1) The cells are sown in a suitable cell density in microtitre plates (96-well format) and the test substances are added in the form of a concentration series. After four further days of cultivation in serum-containing medium, the tumour cell proliferation/tumour cell vitality can be determined by means of an Alamar Blue test system.
# The cells are cultivated in medium. At intervals of several days, the cells are detached from the culture dishes with the aid of trypsin solution and sown in suitable dilution in fresh medium. The cells are cultivated at 37° Celsius and 10% CO2.
# A defined number of cells (for example 2000 cells) per culture/well in a volume of 180 μl of culture medium are sown in microtitre plates (96 well cell-culture plates) using a multichannel pipette. The cells are subsequently cultivated in a CO2 incubator (37° C. and 10% CO2).
# The test substances are dissolved, for example, in DMSO and subsequently employed in corresponding concentration (if desired in a dilution series) in the cell culture medium. The dilution steps can be adapted depending on the efficiency of the active ingredients and the desired spread of the concentrations. Cell culture medium is added to the test substances in corresponding concentrations. The addition of the test substances to the cells can take place on the same day as the sowing of the cells. To this end, in each case 20 μl of substance solution from the predilution plate are added to the cultures/wells. The cells are cultivated for a further 4 days at 37° Celsius and 10% CO2.
# In each case, 20 μl of Alamar Blue reagent are added per well, and the microtitre plates are incubated, for example, for a further seven hours in a CO2 incubator (at 37° C. and 10% CO2). The plates are measured in a reader with a fluorescence filter at a wavelength of 540 nm. The plates can be shaken gently immediately before the measurement.
# (§2) The absorbance value of the medium control (no cells and test substances used) is subtracted from all other absorbance values. The controls (cells without test substance) are set equal to 100 per cent, and all other absorbance values are set in relation thereto (for example in % of control):
# (§3) IC50 values (50% inhibition) are determined with the aid of statistics programs, such as, for example, RS1.
# Colo205 (intestine) = test: Inhibition of the proliferation/vitality of tumour cells (Alamar Blue), Colo205; conditions: Homo sapiens, COLO 205, 96 h, 4 days cultivation
# Description: as §1
# (§4) The cells are cultivated in medium. At intervals of several days, the cells are detached from the culture dishes with the aid of trypsin solution and sown in suitable dilution in fresh medium. The cells are cultivated at 37° Celsius and 10% CO2. […]
# (§5) In each case, 20 μl of Alamar Blue reagent are added per well, and the microtitre plates are incubated, for example, for a further seven hours in a CO2 incubator (at 37° C. and 10% CO2). The plates are measured in a reader with a fluorescence filter at a wavelength of 540 nm. […]
# as §2, §3
# PC3 (prostate) = test: Inhibition of the proliferation/vitality of tumour cells (Alamar Blue), PC3; conditions: Prostate cell, 96 h, 4 days cultivation
# Description: as §1, §4, §5, §2, §3
# MCF7 (breast) = test: Inhibition of the proliferation/vitality of tumour cells (Alamar Blue), MCF7; conditions: Homo sapiens, 96 h, 4 days cultivation
# Description: as §1, §4, §5, §2, §3
IC50 (A2780 (ovary)),IC50 (Colo205 (intestine)),IC50 (PC3 (prostate)),IC50 (MCF7 (breast)),Compound
1000 to 10000 nM,,,,"Cc1ccccc1Nc1nccc(-c2c[nH]c3ccncc23)n1 [Compound A6, [4-(1H-pyrrolo-[3,2-c]pyridin-3-yl)pyrimidin-2-yl]-o-tolyl-amine]"
10 to 1000 nM,,,,Fc1cccc(Nc2nccc(-c3c[nH]c4ccncc34)n2)c1 [Compound A7]
10 to 1000 nM,10 to 1000 nM,10 to 1000 nM,10 to 1000 nM,"c1ccc(Nc2nccc(-c3c[nH]c4ccncc34)n2)cc1 [Compound A1, phenyl[4-(1H-pyrrolo[3,2-c]pyridin-3-yl)pyrimidin-2-yl]-amine]"
1000 to 10000 nM,,,,COc1ccc(Nc2nccc(-c3c[nH]c4ccncc34)n2)cc1 [Compound A8]
